From patent US9908859B2, “Lysine demethylase inhibitors for myeloproliferative disorders” (Oryzon Genomics S.A., priority 2011, dated 2018)

Columns and labels:
platelets = assay: Platelet levels in mice after 5 consecutive once daily injections; format: in vivo, mice (Hsd:Athymic Nude-Foxn1nu); details: 60 min after last dose
Method: On the fifth day, 60 min after the administration, mice were sacrificed and blood was collected in sodium citrate-containing tubes for haemogram analysis. Platelet levels were determined and referred as % of platelets compared with the levels found in mice treated with vehicle. Platelet levels were determined in a standard hematology analyzer (Abacus Junior Vet, from Diatron) following the manufacturer's instructions.
20% 2-hydroxypropyl-β-cyclodextrin in H2O was used as a vehicle. When necessary, 10% DMSO was also added in the vehicle. Each day, compounds were administered in a single intraperitoneal injection with administration volumes of 15 ml/kg.
Mice strain was Hsd:Athymic Nude-Foxn1nu. Animals were maintained in air and temperature controlled cages with regular supply of water and food.

[1] = molecular target: T1, Human recombinant monoamine oxidase MAO-A (Homo sapiens, UniProt P21397); assay: MAO-A inhibition, kynuramine fluorescence assay; format: biochemical
T1 construct: purchased Sigma Aldrich
T1 sequence (P21397 1-527): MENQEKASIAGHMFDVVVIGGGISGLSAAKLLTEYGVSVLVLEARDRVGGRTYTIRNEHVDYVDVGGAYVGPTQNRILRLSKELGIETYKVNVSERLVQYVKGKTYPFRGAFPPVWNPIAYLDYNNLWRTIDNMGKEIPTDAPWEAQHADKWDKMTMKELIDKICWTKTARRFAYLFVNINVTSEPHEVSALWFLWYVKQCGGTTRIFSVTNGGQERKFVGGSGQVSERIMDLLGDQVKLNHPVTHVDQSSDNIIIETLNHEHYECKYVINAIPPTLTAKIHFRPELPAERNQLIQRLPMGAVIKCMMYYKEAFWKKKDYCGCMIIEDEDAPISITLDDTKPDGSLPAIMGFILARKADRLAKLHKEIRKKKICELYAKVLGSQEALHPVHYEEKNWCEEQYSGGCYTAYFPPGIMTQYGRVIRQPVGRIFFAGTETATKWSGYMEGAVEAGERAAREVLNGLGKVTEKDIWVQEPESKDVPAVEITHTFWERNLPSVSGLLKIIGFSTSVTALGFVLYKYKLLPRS
Text: (§1) Human recombinant monoamine oxidase proteins MAO-A and MAO-B were purchased from Sigma Aldrich. MAOs catalyze the oxidative deamination of primary, secondary and tertiary amines. In order to monitor MAO enzymatic activities and/or their inhibition rate by inhibitor(s) of interest, a fluorescent-based (inhibitor)-screening assay was set up. 3-(2-Aminophenyl)-3-oxopropanamine (kynuramine dihydrobromide, Sigma Aldrich), a non fluorescent compound was chosen as a substrate. Kynuramine is a non-specific substrate for both MAOs activities. While undergoing oxidative deamination by MAO activities, kynuramine is converted into 4-hydroxyquinoline (4-HQ), a resulting fluorescent product.
(§2) The monoamine oxidase activity was estimated by measuring the conversion of kynuramine into 4-hydroxyquinoline. […]
(§3) After leaving the enzyme(s) interacting with the inhibitor, 60 to 90 μM of kynuramine was added to each reaction for MAO-B and MAO-A assay respectively, and the reaction was left for 1 hour at 37° C. in the dark. […] The conversion of kynuramine to 4-hydroxyquinoline, was monitored by fluorescence (excitation at 320 nm, emission at 360 nm) using a microplate reader (Infinite 200, Tecan). Arbitrary units were used to measure levels of fluorescence produced in the absence and/or in the presence of inhibitor.
(§4) The Ki (IC50) of each inhibitor was determined at Vmax/2.

[2] = system: H3K4 methylation in SH-SY5Y cells; assay: Western blot for dimethylated H3-K4 in SH-SY5Y cells; format: cell-based
Text: B-actin was used as a loading control.

LSD1 = LSD1 (Homo sapiens, UniProt O60341); assay: LSD1 demethylase inhibition, Amplex Red peroxide/peroxidase-coupled assay with di-methylated H3-K4 peptide; format: biochemical; parameters: purchased BPS Bioscience Inc
Text: Compounds for use in the methods of the invention can be identified by their ability to inhibit LSD1. The ability of the compounds of the invention to inhibit LSD1 can be tested as follows. Human recombinant LSD1 protein was purchased from BPS Bioscience Inc. In order to monitor LSD1 enzymatic activity and/or its inhibition rate by our inhibitor(s) of interest, di-methylated H3-K4 peptide (Millipore) was chosen as a substrate. The demethylase activity was estimated, under aerobic conditions, by measuring the release of H2O2 produced during the catalytic process, using the Amplex® Red peroxide/peroxidase-coupled assay kit (Invitrogen).
Within the experiment, each concentration of inhibitor was tested in triplicate. […] The enzymatic reactions were set up in a 50 mM sodium phosphate, pH 7.4 buffer. […] The conversion of the Amplex® Red reagent to resorufin due to the presence of H2O2 in the assay, was monitored by fluorescence (excitation at 540 nm, emission at 590 nm) using a microplate reader (Infinite 200, Tecan). […]
The maximum demethylase activity of LSD1 was obtained in the absence of inhibitor and corrected for background fluorescence in the absence of LSD1. […]

[3] = molecular target: T2, Human recombinant monoamine oxidase MAO-B (Homo sapiens, UniProt P27338); assay: MAO-B inhibition, kynuramine fluorescence assay; format: biochemical
T2 construct: purchased Sigma Aldrich
T2 sequence (P27338 1-520): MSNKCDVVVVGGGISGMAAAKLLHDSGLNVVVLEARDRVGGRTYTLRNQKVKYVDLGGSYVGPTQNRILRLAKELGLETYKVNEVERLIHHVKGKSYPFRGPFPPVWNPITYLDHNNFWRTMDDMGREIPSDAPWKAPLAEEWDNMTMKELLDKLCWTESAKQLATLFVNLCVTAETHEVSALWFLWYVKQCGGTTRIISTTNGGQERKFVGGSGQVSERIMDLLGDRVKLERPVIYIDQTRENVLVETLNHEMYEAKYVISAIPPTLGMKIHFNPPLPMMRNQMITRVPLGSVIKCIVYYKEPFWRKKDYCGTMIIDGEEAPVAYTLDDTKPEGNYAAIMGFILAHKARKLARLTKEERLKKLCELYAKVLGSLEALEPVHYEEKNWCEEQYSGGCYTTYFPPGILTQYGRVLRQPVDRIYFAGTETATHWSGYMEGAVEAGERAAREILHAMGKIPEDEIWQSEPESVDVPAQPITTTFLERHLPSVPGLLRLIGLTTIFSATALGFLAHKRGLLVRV
Text: as §1, §2, §3, §4

[4] = 10 mg/kg i.p. once daily x 5 days
[5] = 20 mg/kg i.p. once daily x 5 days
[6] = 40 mg/kg i.p. once daily x 5 days

IC50 [1]	IC50 (LSD1)	Structure (SMILES)	% platelet vs. Vehicle (platelets; [4])	% platelet vs. Vehicle (platelets; [5])	% platelet vs. Vehicle (platelets; [6])	further results
		CN1CCN(C(=O)CN[C@H]2C[C@@H]2c2ccc(OCc3ccccc3)cc2)CC1 (racemic) [Compound 3]	5%			% platelet vs. Vehicle (platelets; 1 mg/kg i.p. once daily x 5 days): 46%; % platelet vs. Vehicle (platelets; 3 mg/kg i.p. once daily x 5 days): 16%
> 2000 nM	< 200 nM	NC(=O)CN[C@@H]1C[C@H]1c1ccc(OCc2ccccc2)cc1 (relative stereo) [Compound 1]	66%	55%	34%	H3K4 methylation (western blot) ([2]; SH-SY5Y cells grown with compound for 1, 2 and 3 days, Dual-1 at 100 μM (FIG. 3)): increases H3K4 methylation in cells in a time dependent manner; potency at increasing global dimethylated H3K4 levels as compared to tranylcypromine ([2]; SH-SY5Y cells, 1, 2 and 3 days): ≥ 10 fold; % platelet vs. Vehicle (platelets; 5 mg/kg i.p. once daily x 5 days): 91%
> 500 nM	< 200 nM	N[C@H]1CCN(CCN[C@H]2C[C@@H]2c2ccc(-c3cccc(C(F)(F)F)c3)cc2)C1 [Compound 5]				IC50 [3]: > 1000 nM
		N[C@H]1CC1c1ccc(-c2cccc(O)c2)cc1 (stereo partly shown) [Compound 6]				% platelet vs. Vehicle (platelets; 17 mg/kg i.p. once daily x 5 days): 56%; % platelet vs. Vehicle (platelets; 34 mg/kg i.p. once daily x 5 days): 46%; % platelet vs. Vehicle (platelets; 52 mg/kg i.p. once daily x 5 days): 63%
		CS(=O)(=O)Nc1cccc(-c2ccc(C3C[C@@H]3N)cn2)c1 (stereo partly shown) [Compound 7]		68%	44%	
